{"source": "patent US12447170B2", "about": "“Use of maribavir in treatment regimens” (priority 2021, dated 2025)", "assay": "clinical", "settings": "human, in vivo; for AUC(0-t): AUC(0-12 h)", "description": "A combination of in vitro data and clinical pharmacokinetic data obtained following a single dose of 400 mg maribavir were used to develop the PBPK model. […] The Cmax was marginally under predicted, which could be expected because the PBPK model was optimized for better prediction of C12h.\nA comparison of observed and predicted plasma concentrations of maribavir following single oral doses of 800 mg and 1600 mg to healthy patients […]. […] The simulated and observed maribavir concentrations were in reasonable agreement.\nA comparison of observed and predicted plasma concentrations of maribavir following multiple oral 400 mg BID doses of maribavir was performed. […] The simulated and observed maribavir concentrations were in reasonable agreement.", "key": {"[1]": {"settings": "400 mg, observed Geometric mean"}}}
{"smiles": "CC(C)Nc1nc2cc(Cl)c(Cl)cc2n1[C@H]1O[C@@H](CO)[C@H](O)[C@@H]1O", "note": "[maribavir, (2S,3S,4R,5S)-2-(5,6-dichloro-2-(isopropylamino)-1H-benzo[d]imidazol-1-yl)-5-(hydroxymethyl)tetrahydrofuran-3,4-diol]", "values": [{"measurement": "AUC(0-∞), observed Mean", "setting": "400 mg", "value": 126000, "unit": "ng·h/mL"}, {"measurement": "AUC(0-t)", "setting": "400 mg, observed", "value": 86600, "unit": "ng·h/mL"}, {"measurement": "AUC(0-t)", "setting": "400 mg, observed Mean", "value": 89900, "unit": "ng·h/mL"}, {"measurement": "AUC(0-inf)", "setting": "[1]", "value": 119000, "unit": "ng·h/mL"}, {"measurement": "AUC(0-inf)", "setting": "400 mg, observed Mean", "value": 89900, "unit": "ng·h/mL"}, {"measurement": "Cmax", "setting": "[1]", "value": 19400, "unit": "ng/mL"}, {"measurement": "Cmax", "setting": "400 mg, observed Mean", "value": 16900, "unit": "ng/mL"}, {"measurement": "Cmax", "setting": "400 mg, observed, row headed % CV", "value": 16200, "unit": "ng/mL"}, {"measurement": "AUC(0-inf)", "setting": "po, 400 mg, observed Mean", "value": 97800, "unit": "ng·h/mL"}, {"measurement": "Cmax", "setting": "po, 400 mg, observed Mean", "value": 16700, "unit": "ng/mL"}, {"measurement": "AUC(0-inf)", "setting": "po, 800 mg, observed Mean", "value": 183000, "unit": "ng·h/mL"}, {"measurement": "Cmax", "setting": "po, 800 mg, observed Mean", "value": 26400, "unit": "ng/mL"}, {"measurement": "AUC(0-inf)", "setting": "po, 1600 mg, observed Mean", "value": 437000, "unit": "ng·h/mL"}, {"measurement": "Cmax", "setting": "po, 1600 mg, observed Mean", "value": 48800, "unit": "ng/mL"}]}
